Read-outs that look alike come from different tables or passages of the source.
Tests used:
MOLT4 = experiment: cytotoxicity to tumor cell line MOLT4; format: cell-based, human
Summary of the method: (§1)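 Human tumour lines at 2×10^5 cells/ml in RPMI1640 with 20% FCS were mixed 1:1 with test solution and cultured 72 h at 37° C, 5% CO2. MTT colorimetry at 550 nm; percent suppression served as the cytotoxicity index.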

[1] = cytotoxicity to tumor cell line MOLT4; format: cell-based, human; conditions: human, molt4 cells, read-out: Suppression
Summary of the method: as §1

K562 = experiment: in vitro; format: cell-based, human
U937 = experiment: in vitro; format: cell-based, human
in vitro = format: cell-based, human; conditions: human, read-out: Suppression
HL60 = experiment: in vitro; format: cell-based, human
PC-14 = experiment: in vitro; format: cell-based, human
CCRF-CEM = experiment: in vitro; format: cell-based, human
KB = experiment: in vitro; format: cell-based, human
[2] = system: mouse allogenic mixed lymphocyte reaction (BALB/c responder, C57BL/6 stimulator spleen cells); experiment: mouse allogenic mixed lymphocyte reaction (MLR), blastogenesis by 3H-thymidine uptake; format: cell-based
mouse L929 cells = experiment: cytotoxicity to mouse L929 cells; format: cell-based; conditions: 550 nm
[3] = cytotoxicity to mouse L929 cells; format: cell-based; conditions: mouse, l929 cells, read-out: Suppression

CCCCCCC(=O)CCCCCC/C=C/CC1OC(=O)C(CO)(NC(C)=O)C1O (stereo not drawn) [Example 11]
Absorbancy (MOLT4; 0.1 μg/ml): 0.182
Absorbancy (MOLT4; 1.0 μg/ml): 0.150
Absorbancy (MOLT4; 10.0 μg/ml): 0.128
cytotoxicity at 72 h ([1]; 0.1 μg/ml): 0%
cytotoxicity at 72 h ([1]; 1.0 μg/ml): 0%
cytotoxicity at 72 h ([1]; 10.0 μg/ml): 11.7%
Absorbancy (K562; 0.1 μg/ml): 0.317
Absorbancy (K562; 1.0 μg/ml): 0.337
Absorbancy (K562; 10.0 μg/ml): 0.257
Absorbancy (U937; 0.1 μg/ml): 0.598
Absorbancy (U937; 1.0 μg/ml): 0.583
Absorbancy (U937; 10.0 μg/ml): 0.449
cytotoxicity at 72 h (in vitro; ccrf-cem cells, 0.1 μg/ml): 0%
cytotoxicity at 72 h (in vitro; ccrf-cem cells, 1.0 μg/ml): 4.2%
cytotoxicity at 72 h (in vitro; ccrf-cem cells, 10.0 μg/ml): 12.9%
cytotoxicity at 72 h (in vitro; hl60 cells, 0.1 μg/ml): 9%
cytotoxicity at 72 h (in vitro; hl60 cells, 1.0 μg/ml): 12.6%
cytotoxicity at 72 h (in vitro; hl60 cells, 10.0 μg/ml): 27%
cytotoxicity at 72 h (in vitro; k562 cells, 0.1 μg/ml): 17.7%
cytotoxicity at 72 h (in vitro; k562 cells, 1.0 μg/ml): 12.5%
cytotoxicity at 72 h (in vitro; k562 cells, 10.0 μg/ml): 34.5%
cytotoxicity at 72 h (in vitro; kb cells, 0.1 μg/ml): 7%
cytotoxicity at 72 h (in vitro; kb cells, 1.0 μg/ml): 5.8%
cytotoxicity at 72 h (in vitro; kb cells, 10.0 μg/ml): 30.1%
cytotoxicity at 72 h (in vitro; pc-14 cells, 0.1 μg/ml): 6.5%
cytotoxicity at 72 h (in vitro; pc-14 cells, 1.0 μg/ml): 12.7%
cytotoxicity at 72 h (in vitro; pc-14 cells, 10.0 μg/ml): 40%
cytotoxicity at 72 h (in vitro; u937 cells, 0.1 μg/ml): 0%
cytotoxicity at 72 h (in vitro; u937 cells, 1.0 μg/ml): 0%
cytotoxicity at 72 h (in vitro; u937 cells, 10.0 μg/ml): 23%
Absorbancy (HL60; 0.1 μg/ml): 0.475
Absorbancy (HL60; 1.0 μg/ml): 0.456
Absorbancy (HL60; 10.0 μg/ml): 0.381
Absorbancy (PC-14; 0.1 μg/ml): 0.443
Absorbancy (PC-14; 1.0 μg/ml): 0.413
Absorbancy (PC-14; 10.0 μg/ml): 0.284
Absorbancy (CCRF-CEM; 0.1 μg/ml): 0.694
Absorbancy (CCRF-CEM; 1.0 μg/ml): 0.663
Absorbancy (CCRF-CEM; 10.0 μg/ml): 0.603
Absorbancy (KB; 0.1 μg/ml): 0.679
Absorbancy (KB; 1.0 μg/ml): 0.688
Absorbancy (KB; 10.0 μg/ml): 0.510
3H-thymidine uptake ([2]; 0.001 μg/ml): 32597 cpm
3H-thymidine uptake ([2]; 0.01 μg/ml): 30777 cpm
3H-thymidine uptake ([2]; 0.1 μg/ml): 23430 cpm
inhibition at 0.001 µg/mL ([2]; Mus musculus, Lymphocyte, 0.001 μg/ml, read-out: Suppression): 0%
inhibition at 0.01 µg/mL ([2]; Mus musculus, Lymphocyte, 0.01 μg/ml, read-out: Suppression): 0%
inhibition at 0.1 µg/mL ([2]; Mus musculus, Lymphocyte, 0.1 μg/ml, read-out: Suppression): 18.2%
Absorbancy (mouse L929 cells; 1 μg/ml): 0.710
Absorbancy (mouse L929 cells; 10 μg/ml): 0.669
Absorbancy (mouse L929 cells; 100 μg/ml): 0.047
cytotoxicity at 48 h ([3]; 1 μg/ml): 0%
cytotoxicity at 48 h ([3]; 10 μg/ml): 0%
cytotoxicity at 48 h ([3]; 100 μg/ml): 91.8%

Reference: patent US5219884A, “Immunosuppressant” (Taito Co., Ltd., priority 1990, dated 1993)
